According to paper PMC5431371, “Crystal structure-based discovery of a novel synthesized PARP1 inhibitor (OL-1) with apoptosis-inducing mechanisms in triple-negative breast cancer” (Scientific Reports, 2016):
“And” between values parts separate entries of the source, which are not always exact repeats. Identical values can stand only once. Like-named read-outs stand apart in the source and are kept apart here.

Columns and labels:
[1] = target: T1, Recombinant Human PARP1 (Homo sapiens, UniProt P09874); experiment: PARP1 enzymatic inhibition assay (Universal Chemiluminescent PARP Assay Kit); assay type: biochemical; details: mean ± SD, at least three independent experiments
T1 construct: purchased Trevigen
T1 sequence (P09874 whole entry): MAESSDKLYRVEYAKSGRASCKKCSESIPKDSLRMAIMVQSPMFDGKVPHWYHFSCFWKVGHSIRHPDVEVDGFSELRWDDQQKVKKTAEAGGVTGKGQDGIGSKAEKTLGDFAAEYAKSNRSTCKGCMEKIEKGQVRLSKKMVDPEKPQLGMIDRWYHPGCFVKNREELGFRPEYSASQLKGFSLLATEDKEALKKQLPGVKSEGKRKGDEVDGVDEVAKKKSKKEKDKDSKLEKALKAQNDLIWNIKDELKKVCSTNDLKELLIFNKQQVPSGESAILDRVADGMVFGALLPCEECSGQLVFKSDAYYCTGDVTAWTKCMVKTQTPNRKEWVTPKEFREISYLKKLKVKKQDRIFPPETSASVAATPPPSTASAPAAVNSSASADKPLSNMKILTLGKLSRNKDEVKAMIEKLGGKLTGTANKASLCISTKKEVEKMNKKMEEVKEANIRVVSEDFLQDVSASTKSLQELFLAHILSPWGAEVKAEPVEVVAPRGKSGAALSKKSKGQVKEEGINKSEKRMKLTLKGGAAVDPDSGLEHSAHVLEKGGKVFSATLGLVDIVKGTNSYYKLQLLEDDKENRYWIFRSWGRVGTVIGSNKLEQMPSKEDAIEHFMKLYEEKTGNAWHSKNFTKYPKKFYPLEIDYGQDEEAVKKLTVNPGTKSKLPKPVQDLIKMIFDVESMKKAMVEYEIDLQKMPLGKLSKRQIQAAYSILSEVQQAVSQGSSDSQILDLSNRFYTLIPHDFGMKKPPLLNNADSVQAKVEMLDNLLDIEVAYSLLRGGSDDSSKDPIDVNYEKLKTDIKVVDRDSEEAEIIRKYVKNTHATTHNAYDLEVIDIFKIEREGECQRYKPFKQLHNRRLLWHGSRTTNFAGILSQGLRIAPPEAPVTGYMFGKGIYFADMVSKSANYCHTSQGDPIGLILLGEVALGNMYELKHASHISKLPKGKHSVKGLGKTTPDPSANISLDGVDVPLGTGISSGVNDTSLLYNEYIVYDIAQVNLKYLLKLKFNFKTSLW
Procedure: The PARP1 enzymatic inhibition assay was performed by using Universal Chemiluminescent PARP Assay Kit (Trevigen, Gaithersburg, MD, USA) according to the manufacturer’s instruction and previous report. Briefly, serial dilutions of inhibitor were added to appropriate wells followed by addition of diluted PARP1 enzyme (0.5 Unit/well). After incubation for 10 min at room temperature, distributing 25 μL of 1X PARP Cocktail into each well and incubating the strip wells at room temperature for 60 min. The strip wells were washed with 1X PBS and 0.1% Triton X-100 for twice. Then 50 µL/well of diluted Strep-HRP was added to each well and incubate at room temperature for 60 min. After another wash with PBS, mixing equal volumes of PeroxyGlow™ A and B together and adding 100 µl per well. Finally, immediately taking the chemiluminescent readings. The IC50 values of PARP1 inhibitors were determined using Prism 6 software (GraphPad, San Diego, CA, USA).

[2] = system: MDA-MB-436 cells; experiment: Cell viability assay (MTT); assay type: cell-based; details: Homo sapiens
Procedure: 5 × 10^3 cells were seeded into each well in 96-well microplates and cultured for 24 h. […] After drug treatment, the cell viabilities were detected by MTT assay.

[3] = system: MDA-MB-436 cells; experiment: Cell migration assay (scratch wound); assay type: cell-based; details: 24 h
Procedure: MDA-MB-436 cells were cultured in 24-well microplates and scratch-wounded by sterilized pipettes. Then the cells were washed with PBS and cultured with normal medium or OL-1. After 24 h incubation, pictures were taken by phase-contrast microscope.

[4] = system: MDA-MB-436 cells; experiment: Apoptosis assay (Annexin V-FITC/PI double staining, flow cytometry); assay type: cell-based; details: MDA-MB-436, 0.25-1 μM, 24 h
Procedure: MDA-MB-436 cells (1 × 10^5 per well) were seeded into 6-well microplates in the presence or absence of OL-1 and cultured for 24 h, then incubated with 500 μL Hoechst 33258 staining solution (0.5 μg/mL) for 30 min at 37 °C. After staining, the apoptotic features were observed under fluorescence microscope. Apoptotic ratio was measured by Annexin-V-FLUOS Staining Kit (Roche, Germany) according to the manufacturer’s protocol followed by flow cytometry (FACS) analysis (Becton Dickinson, Franklin Lakes, NJ).

[5] = system: MDA-MB-436 xenograft; experiment: MDA-MB-436 xenograft tumor model; assay type: in vivo, BALB/c nude mice
Procedure: All experiments protocols used in this study were carried out in accordance with guidelines of the animal ethics committee (Sichuan University). Thirty-two 6–8 weeks-old female BALB/c nude mice (18–20 g) were subcutaneously injected with MDA-MB-436 cells (1 × 10^7 cells/mouse). Until the tumor volumes reached 100 mm^3 (calculated as V = L × W^2/2), the mice were randomly divided into four groups. […] Body weight and the tumor size were determined every day until the end of the study. All mice were sacrificed at the end of drug treatment. The organs of mice such as spleen, liver and kidney were harvested and weighed. Tumor tissues were detached and fixed in 4% paraformaldehyde for immunohistochemistry or lysed for western blotting.
Immunohistochemical analysis was carried out by the method of our previous study. Samples were dehydrated using gradient ethanol, and subsequently paraffin embedded. The paraffin embedded samples were sliced into 5 μm thickness sections. […] Nuclei were counterstained with hematoxylin. The numbers of positive cells were counted in at least 6 fields for each section and statistical analyzed.

[6] = system: PARP1 and PAR; experiment: Western blot analysis of PARP1 and PAR in treated cells; assay type: cell-based; details: MDA-MB-436 cells
Procedure: (§1) Western blot analysis was carried out briefly as previous description. MDA-MB-436 cells were exposed to OL-1 for indicated time. Both floating cells and adherent were collected. The cell pellets were resuspended with RIPA lysis buffer and PMSF (1 mM) (Beyotime, Haimen, Jiangsu, China) and lysed at 4 °C for 1 h. After 12,000 rpm centrifugation for 10 min, the supernatant was collected to determine the protein content by the BCA Protein Assay Kit (CWBIO, Beijing, China). […] After pre-blocking in TBST with 5% non-fat milk or BSA for 1 h, the membranes were incubated with primary antibodies overnight at 4 °C, and subsequently incubated with HRP-conjugated secondary antibody at room temperature for 1–2 h. Positive signals were detected by using ECL as the HRP substrate after washing with TBST solution.

[7] = system: Bax, Bcl-2, Caspase-3; experiment: Western blot analysis of apoptotic markers; assay type: cell-based; details: MDA-MB-436 cells
Procedure: as §1

[8] = recombinant human PARP1, read-out: Enzymatic inhibition (IC50, μM) PARP1
[9] = MDA-MB-436 cells (BRAC1 mutant breast cancer), mean ± SD, at least three independent experiments, read-out: Anti-cell viability (IC50, μM) MDA-MB-436
[10] = high dose 25 mg/kg/d i.p., 14 days, vs Iniparib 100 mg/kg/d and low dose 12.5 mg/kg/d, P < 0.05

Row | IC50 [1, 8] | IC50 [2, 9] | Structure (SMILES) | further results
1 | > 20 µM |  | CNCC=C1c2ccccc2CCc2ccccc21 [Compound 11a] | 
2 | 16.2 ± 1.24 µM | > 20 µM | CN(C)CC=C1c2ccccc2CCc2ccccc21 [Compound 11b] | 
3 | > 20 µM |  | CNCCCC=C1c2ccccc2CCc2ccccc21 [Compound 11e] | 
4 | > 20 µM |  | CN(C)CCCC=C1c2ccccc2CCc2ccccc21 [Compound 11f] | 
5 | > 20 µM |  | C(=C1c2ccccc2CCc2ccccc21)c1ccccc1 [Compound 15a] | 
6 | > 20 µM |  | Fc1ccc(C=C2c3ccccc3CCc3ccccc32)cc1 [Compound 15b] | 
7 | > 20 µM |  | Clc1ccc(C=C2c3ccccc3CCc3ccccc32)cc1 [Compound 15c] | 
8 | > 20 µM |  | Brc1ccc(C=C2c3ccccc3CCc3ccccc32)cc1 [Compound 15d] | 
9 | > 20 µM |  | Cc1ccc(C=C2c3ccccc3CCc3ccccc32)cc1 [Compound 15e] | 
10 | 13.2 ± 2.33 µM | > 20 µM | CN(C)CC=C1c2ccccc2COc2ccccc21 [Compound 19a] | 
11 | 0.75 ± 0.27 µM |  | CN(C)CCC=C1c2ccccc2COc2ccccc21 [Compound 19b] | 
12 | > 20 µM |  | CN(C)CCCC=C1c2ccccc2COc2ccccc21 [Compound 19c] | 
13 | 19.2 ± 3.05 µM | > 20 µM | CN(C)CC=C1c2ccccc2CSc2ccccc21 [Compound 23a] | 
14 | 1.04 ± 0.17 µM | 17.9 ± 2.11 µM | CN(C)CCC=C1c2ccccc2CSc2ccccc21 [Compound 23b] | 
15 | > 20 µM |  | CN(C)CCCC=C1c2ccccc2CSc2ccccc21 [Compound 23c] | 
16 | > 20 µM |  | CN(C)CC=C1c2ccccc2Cc2ccccc21 [Compound 26a] | 
17 | 17.9 ± 2.46 µM | > 20 µM | CN(C)CCC=C1c2ccccc2Cc2ccccc21 [Compound 26b] | 
18 | > 20 µM |  | CN(C)CCCC=C1c2ccccc2Cc2ccccc21 [Compound 26c] | 
19 | > 20 µM |  | CN(C)CC=C1c2ccccc2Oc2ccccc21 [Compound 28a] | 
20 | > 20 µM |  | CN(C)CCC=C1c2ccccc2Oc2ccccc21 [Compound 28b] | 
21 | > 20 µM |  | CN(C)CCCC=C1c2ccccc2Oc2ccccc21 [Compound 28c] | 
22 | 11.2 ± 1.16 µM | > 20 µM | CN(C)CC/C=C1/c2ccccc2COc2ccc(CC(=O)O)cc21 [Compound 31] | 
23 | 9.11 µM and 19.1 µM | > 20 µM | COC(=O)Cc1ccc2c(c1)C(=CCCN(C)C)c1ccccc1CO2 [Compound 33a] | 
24 | > 20 µM |  | CCOC(=O)Cc1ccc2c(c1)C(=CCCN(C)C)c1ccccc1CO2 [Compound 33b] | 
25 | 7.35 ± 1.32 µM | 8.23 ± 1.56 µM | CC(C)NC(=O)Cc1ccc2c(c1)C(=CCCN(C)C)c1ccccc1CO2 [Compound 33j] | 
26 | 19.1 ± 2.16 µM | > 20 µM | CN(C)CCC=C1c2ccccc2COc2ccc(CC(=O)NCCO)cc21 [Compound 33k] | 
27 | > 20 µM |  | CN(C)CCC=C1c2ccccc2COc2ccc(CC(=O)NC3CC3)cc21 [Compound 33n] | 
28 | > 20 µM |  | COCCCNC(=O)Cc1ccc2c(c1)C(=CCCN(C)C)c1ccccc1CO2 [Compound 33o] | 
29 |  | 14.3 ± 1.56 µM | NC(=O)c1ccc(I)c([N+](=O)[O-])c1 [Iniparib, reference compound] | liver weights ([5]; 100 mg/kg/d, 14 days, P < 0.01): significantly decreased; spleen weights ([5]; 100 mg/kg/d, 14 days, P < 0.05): affected
30 |  |  | O=C(c1cc(Cc2n[nH]c(=O)c3ccccc23)ccc1F)N1CCN(C(=O)C2CC2)CC1 [Olaparib, reference compound] | IC50 ([2]; MDA-MB-436, read-out: Anti-cell viability (IC50, μM) MDA-MB-436): 1.12 ± 0.77 µM

Row | Structure (SMILES) | IC50 [1, 8] | IC50 [2, 9] | further results
31 | CN(C)CCC=C1c2ccccc2CCc2ccccc21 [11d (PA-10), 3-(10,11-dihydro-5H-dibenzo[a,d][7]annulen-5-ylidene)-N,N-dimethylpropan-1-amine] | 1.65 ± 0.25 µM | 5.44 ± 1.01 µM | 
32 | CN(C)CC/C=C1/c2ccccc2COc2ccc(CC(=O)NN)cc21 [33e (OL-1)] |  | 0.736 ± 0.223 µM | cell migration [3]: could inhibit cell migration; apoptotic cell ratio [4]: obviously increased in a concentration-dependent manner; loss of body weight ([5]; 25 mg/kg/d i.p., during the 14 days of treatment, P < 0.01): 10.05%; liver, spleen and kidney weights ([5]; OL-1 treated groups (12.5 and 25 mg/kg/d i.p.)): not changed; tumor volumes [5, 10]: lower than the positive control; tumor weights [5, 10]: lower than the positive control; positive ratio of Ki-67 in tumor tissues ([5]; immunohistochemistry, compared to the control group): significantly reduced; decrease of body weights ([5]; low dose 12.5 mg/kg/d i.p., 14 days): not obvious; IC50 ([1]; Enzymatic inhibition (IC50, μM) PARP1, recombinant human PARP1): 0.079 ± 0.013 µM; expression of PAR (western blot) [6]: decreased; activity of PARP (western blot) ([6]; no cleavage of PARP): significantly inhibited; IC50 ([2]; BRCA1 mutant MDA-MB-436 cells, MTT, Fig. 11A, read-out: anti-proliferative effects IC50): 5.14 µM; Bax expression [7]: upregulated; Bcl-2 expression [7]: downregulated; cleavage of caspase-3 [7]: increased
33 | CNCCC=C1c2ccccc2CCc2ccccc21 [Compound 11c] | 4.21 µM and 14.2 µM | > 20 µM | 
